# Laboratory results reported in publication PMC11432330, “Novel Drug-like HsrA Inhibitors Exhibit Potent Narrow-Spectrum Antimicrobial Activities against Helicobacter pylori” (International Journal of Molecular Sciences, 2024).
# System: H. pylori 26695
# Test: In vivo inhibition of HsrA: RNA-Seq transcriptomic analysis of exposed cells
# Type: cell-based, Helicobacter pylori
# Details: for log2 Fold Change: exposed to lethal concentrations vs control
# Protocol: Bacterial growth from three blood agar plates of H. pylori ATCC 700392 (aka 26695) incubated for 48 h at 37 °C under microaerobic conditions was aseptically resuspended in BHI + FBS and adjusted to 10^7 CFU/mL. BHI broth cultures were incubated microaerobically at 37 °C for 24 h. […] At this time, bacterial growth was stopped by adding 1.5 mL ice-cold RNA stop solution (95% absolute ethanol, 5% acid-buffered phenol) and subsequently incubated on ice. Control samples were exposed to the same amount of DMSO instead of the inhibitor. Helicobacter cells from all samples were harvested by centrifugation (4000 rpm at 4 °C for 10 min), then the pellets were quickly frozen by immersion in liquid nitrogen and stored at −80 °C.
# RNA-Seq analysis was performed by GENEWIZ (Azenta Life Sciences, Leipzig, Germany). Frozen cell pellets from two biological replicates of each treatment condition were properly submitted to GENEWIZ in dry ice. RNA-Seq libraries were prepared according to standard protocols via rRNA depletion, RNA fragmentation and random priming, reverse transcription, 5’-phosphorylation and dA-tailing of cDNAs, adaptor ligation, and PCR enrichment. Once the quality of each library was confirmed, they were sequenced on an Illumina NovaSeq 6000 (Illumina, San Diego, CA, USA) with 150-bp paired-ends. Raw sequence reads were filtered to remove possible adapter sequences and nucleotides with poor quality using Trimmomatic v.0.36 [105]. The trimmed reads were subsequently mapped to the H. pylori strain 26695 reference genome NC_000915.1 available on NCBI, by using the Bowtie2 aligner v.2.2.6 [106]. Unique gene hit counts were calculated by using featureCounts from the Subread package v.1.5.2. Only unique reads that fell within the gene regions were counted. Using DESeq2 [108], a comparison of the gene expression between the control and treated groups of samples was performed. The Wald test was used to generate p-values and log2 fold changes. Genes with an adjusted p-value < 0.05 and absolute log2 fold change >1 were considered as differentially expressed genes (DEGs) for each comparison. The RNA-Seq data generated in this study have been deposited in ArrayExpress with the accession number E-MTAB-14255.
# [1] = RNA-Seq, 4 × MIC, vs control samples
smiles,measurement,setting,value
"NC(=NOC(=O)Nc1ccc(Cl)cc1)c1csc([N+](=O)[O-])c1 [Ligand V, N′-{[(4-chloroanilino)carbonyl]}oxy-5-nitrothiophene-3-carboximidamide]",Exposure until log10 CFU/mL diminished in one unit,"4 × MIC, ~3 × 10^7 CFU/mL H. pylori 26695",~ 2 h
same,"Depletion in gene expression of 50S ribosomal proteins L21, L35, L27 and 30S ribosomal protein S10","RNA-Seq, 4 × MIC",> 5.8 fold
same,Downregulation of ferrous iron transporter FeoB,"RNA-Seq, 4 × MIC",~ 2.5 fold
same,ORFs of the H. pylori genome with influenced expression,"RNA-Seq, 4 × MIC",23%
same,"Upregulation of ferritin (pfr, hp0653)","RNA-Seq, 4 × MIC",4.7 fold
same,Upregulation of ferritin-like iron-binding protein NapA,"RNA-Seq, 4 × MIC",2.3 fold
same,Genes downregulated,[1],155
same,Genes upregulated,[1],212
same,ORF with significantly changed transcript levels,"RNA-Seq, 4 × MIC, absolute log2 fold change > 1, p-value < 0.05",367
same,log2 Fold Change HP0013,"gene HP0013, lethal concentrations of V vs control",0.182
same,log2 Fold Change HP0018,"gene HP0018, lethal concentrations of V vs control",0.356
same,log2 Fold Change,gene HP0022,-0.512
same,log2 Fold Change HP0028,"gene HP0028, lethal concentrations of V vs control",0.408
same,log2 Fold Change,gene HP0029,-0.496
same,log2 Fold Change HP0030,"gene HP0030, lethal concentrations of V vs control",0.184
same,log2 Fold Change HP0033,"gene HP0033, lethal concentrations of V vs control",0.361
same,log2 Fold Change,gene HP0043,-0.566
same,log2 Fold Change,gene HP0054,-0.519
same,log2 Fold Change HP0063,"gene HP0063, lethal concentrations of V vs control",0.326
same,log2 Fold Change HP0066,"gene HP0066, lethal concentrations of V vs control",0.182
same,log2 Fold Change HP0081,"gene HP0081, lethal concentrations of V vs control",0.173
same,log2 Fold Change HP0082,"gene HP0082, lethal concentrations of V vs control",0.224
same,log2 Fold Change HP0089,"gene HP0089, lethal concentrations of V vs control",0.244
same,log2 Fold Change,gene HP0099,-0.573
same,log2 Fold Change HP0102,"gene HP0102, lethal concentrations of V vs control",0.190
same,log2 Fold Change HP0104,"gene HP0104, lethal concentrations of V vs control",0.451
same,log2 Fold Change HP0106,"gene HP0106, lethal concentrations of V vs control",0.286
same,log2 Fold Change HP0121,"gene HP0121, lethal concentrations of V vs control",0.408
same,log2 Fold Change HP0138,"gene HP0138, lethal concentrations of V vs control",0.430
same,log2 Fold Change,gene HP0141,-0.503
same,log2 Fold Change,gene HP0142,-0.490
same,log2 Fold Change HP0144,"gene HP0144, lethal concentrations of V vs control",0.204
same,log2 Fold Change HP0145,"gene HP0145, lethal concentrations of V vs control",0.164
same,log2 Fold Change,gene HP0149,-0.471
same,log2 Fold Change,gene HP0151,1.340
same,log2 Fold Change HP0152,"gene HP0152, lethal concentrations of V vs control",0.161
same,log2 Fold Change HP0155,"gene HP0155, lethal concentrations of V vs control",0.192
same,log2 Fold Change,gene HP0159,-0.532
same,log2 Fold Change HP0166,"gene HP0166, lethal concentrations of V vs control",0.208
same,log2 Fold Change HP0170,"gene HP0170, lethal concentrations of V vs control",0.476
same,log2 Fold Change HP0186,"gene HP0186, lethal concentrations of V vs control",0.474
same,log2 Fold Change HP0195,"gene HP0195, lethal concentrations of V vs control",0.229
same,log2 Fold Change,gene HP0202,-0.569
same,log2 Fold Change HP0209,"gene HP0209, lethal concentrations of V vs control",0.364
same,log2 Fold Change HP0214,"gene HP0214, lethal concentrations of V vs control",0.273
same,log2 Fold Change HP0215,"gene HP0215, lethal concentrations of V vs control",0.474
same,log2 Fold Change HP0221,"gene HP0221, lethal concentrations of V vs control",0.231
same,log2 Fold Change,gene HP0222,-0.475
same,log2 Fold Change HP0224,"gene HP0224, lethal concentrations of V vs control",0.431
same,log2 Fold Change HP0230,"gene HP0230, lethal concentrations of V vs control",0.223
same,log2 Fold Change HP0234,"gene HP0234, lethal concentrations of V vs control",0.200
same,log2 Fold Change,gene HP0257,-0.600
same,log2 Fold Change HP0263,"gene HP0263, lethal concentrations of V vs control",0.370
same,log2 Fold Change HP0267,"gene HP0267, lethal concentrations of V vs control",0.453
same,log2 Fold Change,gene HP0268,-0.504
same,log2 Fold Change,gene HP0285,-0.482
same,log2 Fold Change HP0290,"gene HP0290, lethal concentrations of V vs control",0.227
same,log2 Fold Change,gene HP0293,-0.482
same,log2 Fold Change HP0315,"gene HP0315, lethal concentrations of V vs control",0.371
same,log2 Fold Change HP0316,"gene HP0316, lethal concentrations of V vs control",0.320
same,log2 Fold Change HP0322,"gene HP0322, lethal concentrations of V vs control",0.305
same,log2 Fold Change HP0329,"gene HP0329, lethal concentrations of V vs control",0.261
same,log2 Fold Change HP0338,"gene HP0338, lethal concentrations of V vs control",0.386
same,log2 Fold Change HP0339,"gene HP0339, lethal concentrations of V vs control",0.459
same,log2 Fold Change HP0340,"gene HP0340, lethal concentrations of V vs control",0.379
same,log2 Fold Change HP0348,"gene HP0348, lethal concentrations of V vs control",0.281
same,log2 Fold Change HP0360,"gene HP0360, lethal concentrations of V vs control",0.234
same,log2 Fold Change HP0385,"gene HP0385, lethal concentrations of V vs control",0.352
same,log2 Fold Change HP0391,"gene HP0391, lethal concentrations of V vs control",0.386
same,log2 Fold Change HP0393,"gene HP0393, lethal concentrations of V vs control",0.172
same,log2 Fold Change,gene HP0396,-0.496
same,log2 Fold Change HP0405,"gene HP0405, lethal concentrations of V vs control",0.308
same,log2 Fold Change HP0408,"gene HP0408, lethal concentrations of V vs control",0.201
same,log2 Fold Change HP0416,"gene HP0416, lethal concentrations of V vs control",0.330
same,log2 Fold Change,gene HP0418,-0.527
same,log2 Fold Change HP0420,"gene HP0420, lethal concentrations of V vs control",0.289
same,log2 Fold Change HP0437,"gene HP0437, lethal concentrations of V vs control",0.205
same,log2 Fold Change HP0440,"gene HP0440, lethal concentrations of V vs control",0.156
same,log2 Fold Change HP0441,"gene HP0441, lethal concentrations of V vs control",0.254
same,log2 Fold Change HP0447,"gene HP0447, lethal concentrations of V vs control",0.436
